Results: the supplement of paper PMC12137928
Structures can show the parent of a compound that is named as a salt.

System: HCT116
Conditions: 72 h
How it was run: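 HCT116 cells were plated at 250 per well in 1536-well plates and allowed 5 h to attach. CellTiter-Glo luminescence was normalized to vehicle as 0% and positive control as -100%, followed by pattern correction. Four-parameter Hill fits provided IC50 and maximal efficacy.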

Row | SMILES | IC50 cell viability (ICRF193 0 nM) [µM] | IC50 cell viability (ICRF193 200 nM) [µM]
1 | CCOC(=O)c1c(N)sc2c1CCN(Cc1ccccc1)C2 [Tinoridine] | > 45.8 | > 45.8
2 | OC[C@H]1OC(O)[C@H](O)[C@@H](O)[C@@H]1O (stereo partly drawn) [DEXTROSE] | > 45.8 | > 45.8
3 | c1ccc([C@H]2CN3CCSC3=N2)cc1 [Levamisole hydrochloride] | > 45.8 | > 45.8
4 | COc1ccc2[nH]c([S+]([O-])Cc3ncc(C)c(OC)c3C)nc2n1 (stereo not drawn) [Tenatoprazole] | > 45.8 | > 45.8
5 | COCCCN1CCC(NC(=O)c2cc(Cl)c(N)c3c2OCC3)CC1 [Prucalopride] | > 45.8 | > 45.8
6 | NC[C@H]1O[C@H](O[C@H]2[C@H](O)[C@@H](O[C@H]3O[C@H](CO)[C@@H](O)[C@H](N)[C@H]3O)[C@H](N)C[C@@H]2N)[C@H](O)[C@@H](O)[C@@H]1O [Kanamycin (sulfate)] | > 45.8 | > 45.8
7 | COc1c2c(cc3c1OCO3)CCN(C)C2 [Hydrocotarnine hydrobromide] | > 45.8 | > 45.8
8 | O=C1CN2CCOC2(c2ccccc2Cl)c2cc(Cl)ccc2N1 (stereo not drawn) [Cloxazolam] | > 45.8 | > 45.8
9 | CC1(C)O[C@@H]2C[C@H]3[C@@H]4CCC5=CC(=O)C=C[C@]5(C)[C@H]4[C@@H](O)C[C@]3(C)[C@]2(C(=O)CO)O1 [Desonide] | > 45.8 | > 45.8
10 | Cc1cc(C(C)(C)C)cc(C)c1CC1=NCCN1 [Xylometazoline hydrochloride] | > 45.8 | > 45.8
11 | CCCCCCCCC(=O)NCc1ccc(O)c(OC)c1 [Nonivamide] | > 45.8 | > 45.8
12 | Cc1nc(-c2ccc(OCC(C)C)c(C#N)c2)sc1C(=O)O [Febuxostat] | > 45.8 | > 45.8
13 | C[C@]12C[C@H]3S[C@H]3C[C@@H]1CC[C@@H]1[C@@H]2CC[C@]2(C)[C@@H](O)CC[C@@H]12 [Epitiostanol] | > 45.8 | > 45.8
14 | CC(C)(Sc1cc(C(C)(C)C)c(O)c(C(C)(C)C)c1)Sc1cc(C(C)(C)C)c(O)c(C(C)(C)C)c1 [Probucol] | > 45.8 | > 45.8
15 | S=C(SSC(=S)N1CCCCC1)N1CCCCC1 [Dicyclopentamethylenethiuram disulfide] | > 45.8 | > 45.8

The next lines start with the values.

Row | IC50 cell viability (ICRF193 0 nM) [µM] | IC50 cell viability (ICRF193 200 nM) [µM] | SMILES
16 | > 45.8 | > 45.8 | CC(=O)N(c1onc(C)c1C)S(=O)(=O)c1ccc(N)cc1 [Sulfisoxazole acetal]
17 | > 45.8 | > 45.8 | NC12CC3CC(CC(C3)C1)C2 [Amantadine hydrochloride]
18 | > 45.8 | > 45.8 | CC(=O)OCC(=O)Nc1cc(C#N)cc(NC(=O)COC(C)=O)c1Cl [Acreozast]
19 | > 45.8 | > 45.8 | C/C(=C1\CCOC(=O)S1)N(C=O)Cc1cnc(C)nc1N [Cycotiamine]
20 | > 45.8 | > 45.8 | CCCCC(=O)N(Cc1ccc(-c2ccccc2-c2nnn[nH]2)cc1)[C@H](C(=O)O)C(C)C [VALSARTAN]
21 | > 45.8 | > 45.8 | O[C@H]1[C@H](O)[C@@H](O)[C@H](O)[C@@H](O)[C@H]1O [myo-Inositol]
22 | > 45.8 | > 45.8 | C=C1/C(=C\C=C2/CCC[C@]3(C)[C@@H]([C@H](C)OCCC(C)(C)O)CC[C@@H]23)C[C@@H](O)C[C@@H]1O [Maxacalcitol-D6]
23 | > 45.8 | > 45.8 | CN1CCC(=C2c3ccccc3C=Cc3ccccc32)CC1 [Cyproheptadine hydrochloride]
24 | > 45.8 | > 45.8 | Cn1c(=O)cc(N2CCC[C@@H](N)C2)n(Cc2cc(F)ccc2C#N)c1=O [Trelagliptin succinate]
